The source of these data is US11433086B2, “Combination of T-cell checkpoint inhibitors with inhibitors of e-selectin or CXCR4, or with heterobifunctional inhibitors of both E-selectin and CXCR4” (GlycoMimetics, Inc., priority 2016, dated 2022).

This data set is described as follows: Assessment of side effects in CT26.WT tumor-bearing mice (body weight, mortality, necropsy). The data set is classed as in vivo. As to the method: Animals were weighed on each day of treatment. Individual body weights were recorded 3 times weekly. Treatment-related weight loss in excess of 20% was considered unacceptably toxic. In this report, a dosage level is described as tolerated if treatment-related weight loss (during and two weeks after treatment) is <20% and mortality during this period in the absence of potentially lethal tumor burdens is ≤10%. FIG. 6 provides a graph of the percent mean body weight change for the 12 experimental groups.
Upon death or euthanasia, all animals were necropsied to provide a general assessment of potential cause of death and perhaps target organs for toxicity. The presence or absence of metastases was also noted. Remarkable observations of clinical signs and necropsy findings were tabulated as well as individual and group toxicity findings.
This is an individual toxicity parameter.

In the case of `CCC1CC(C(=O)NCCNCc2ccc(CN3CCCNCCNCCCNCC3)c(Br)c2)CC(OC2OC(CO)C(O)C(O[C@@H](CC3CCCCC3)C(=O)O)C2NC(C)=O)C1OC1OC(C)C(O)C(O)C1O` (stereo partly shown) [GMI-1359], for the setting “Groups 2-6”, the “mean weight gain during the treatment regimen” value came to 16.8%, the treatment-related mortality entry is given as “no treatment-related mortality” and the “weight loss associated with treatment” value is recorded as “No weight loss”. Under “Groups 2-6: GMI-1359 40 mg/kg IP QDx20, antibody 10 mg/kg IP Days 3,6,10,13,17”, the “tolerance of treatment” value is reported as “well tolerated”. For the setting “Groups 8-12”, the “mean weight gain during the treatment regimen” value was 7.0%, the treatment-related mortality result was “no treatment-related mortality” and the “weight loss associated with treatment” value was “No weight loss”. Also, the “necropsy findings” value (Groups 8-12, Day 15) was “unremarkable”. Also, for the setting “Groups 8-12: GMI-1359 40 mg/kg IP QDx12, antibody 10 mg/kg IP Days 3,6,10,13”, the “tolerance of treatment” value is given as “well tolerated”. Moreover, the “tolerance of treatment, summary” value (summary over both regimens / all groups) is reported as “well tolerated”.
